Key:
human RORγt LBD = human RORγt LBD (Homo sapiens (Human), UniProt P51449); assay: RORγt Reporter Assay; type: cell-based; details: for IC50 / RORγt reporter Assay, % inhibition @ 6 μM: HEK293T cells; for inhibition at 6 µM: HEK-293T, read-out: RORγt reporter Assay, % inhibition @ 6 μM, HEK293T cells, 6 μM
From the text: A reporter assay was used to test functional activity of RORγt modulatory compounds on transcriptional activation driven by the RORγt LBD. Cells used in the assay were co-transfected with two constructs. The first construct, pBIND-RORγt LBD, contained the wild type human RORγt LBD fused to the DNA binding domain of the GAL4 protein. The second construct, pGL4.31 (Promega Cat no. C935A), contained multiple GAL4 responsive DNA elements upstream of firefly luciferase. […] The mutant construct was called pBIND-RORγt-AF2.
The pBIND vector contains the GAL4 DNA Binding Domain (GAL4 DBD) and the renilla luciferase gene under control of the SV40 promoter. Renilla luciferase expression serves as a control for transfection efficiency and cell viability.
The reporter assay was performed by transiently transfecting HEK293T cells with 5 μg of pBIND-RORγt LBD or pBIND-RORγt LBD-AF2 and 5 μg pGL4.31 (Promega Cat no. C935A) using Fugene 6 (Invitrogen Cat no. E2691) at a 1:6 ratio of DNA:Fugene 6 in a T-75 flask in which cells were at least 80% confluent. Twenty four hours after bulk transfection, cells were plated into 96-well plates at 50,000 cells/well in phenol-red free DMEM containing 5% Lipid Reduced FCS and Pen/Strep. Six hours after plating, cells were treated with compounds for 24 hours. Media was removed and cells were lysed with 50 μL 1× Glo Lysis Buffer (Promega). Dual Glo Luciferase Reagent (50 μL/well) was then added and firefly luciferase luminescence was read on an Envision after a ten minute incubation. Finally, Stop and Glo reagent (50 μL/well) was added and renilla luciferase luminescence was read on an Envision after a ten minute incubation. To calculate the effect of compounds on RORγt activity, the ratio of firefly to renilla luciferase was determined and plotted against compound concentration. Agonist compounds increase RORγt-driven luciferase expression, and antagonist or inverse agonist compounds decrease luciferase expression.

[1] = system: IL-17 production by CD4 T cells; assay: Human Th17 Assay; type: cell-based; details: 3 days
From the text: The human Th17 assay tests the effect of RORγt modulatory compounds on IL-17 production by CD4 T cells under conditions which favor Th17 differentiation. Total CD4^+ T cells were isolated from the peripheral blood mononuclear cells (PBMC) of healthy donors using a CD4^+ T cell isolation kit II, following the manufacturer's instructions (Miltenyi Biotec). Cells were resuspended in a medium of RPMI-1640 supplemented with 10% fetal bovine serum, penicillin, streptomycin, glutamate, and β-mercaptoethanol and were added to 96-well plates at 1.5×10^5 per 100 μL per well. 50 μL of compound at titrated concentrations in DMSO were added into each well at final DMSO concentration at 0.2%. Cells were incubated for 1 hour, then 50 μL of Th17 cell differentiation medium was added to each well. The final concentrations of antibodies and cytokines (R&D Systems) in differentiation medium were: 3×10^6/mL anti-CD3/CD28 beads (prepared using human T cell activation/expansion kit, Miltenyi Biotec), 10 μg/mL anti-IL4, 10 μg/mL anti-IFNγ, 10 ng/mL IL1β, 10 ng/mL IL23, 50 ng/mL IL6, 3 ng/mL TGFβ and 20 U/mL IL2. Cells were cultured at 37° C. and 5% CO2 for 3 days. Supernatants were collected and the accumulated IL-17 in culture was measured by using MULTI-SPOT® Cytokine Plate following manufacture's instruction (Meso Scale Discovery). The plate was read using Sector Imager 6000, and IL-17 concentration was extrapolated from the standard curve. The IC50s were determined by GraphPad.

human RORγt LBD, sequence (P51449 258-518): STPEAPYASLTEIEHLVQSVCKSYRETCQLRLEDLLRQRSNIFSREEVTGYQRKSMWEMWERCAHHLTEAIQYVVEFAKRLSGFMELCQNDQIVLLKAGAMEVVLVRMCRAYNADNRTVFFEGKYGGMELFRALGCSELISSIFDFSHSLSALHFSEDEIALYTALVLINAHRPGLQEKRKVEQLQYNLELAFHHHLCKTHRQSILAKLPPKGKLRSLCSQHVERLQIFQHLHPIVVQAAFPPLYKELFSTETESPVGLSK

IC50 (human RORγt LBD) [nM]	RORγt reporter Assay, % inhibition @ 6 μM (human RORγt LBD) [%]	IC50 [1] [nM]	IC50 ([1]; Homo sapiens, CD4+ T, 72 h) [nM]	inhibition at 6 µM (human RORγt LBD) [%]	Structure (SMILES)
41	102	80			COc1nc2ccc(C(C)(O)c3cnc(C)n3C)cc2c(Cl)c1Cc1ccc(C(F)(F)F)cc1 (single isomer, unassigned) [Example 12c, 1-(4-Chloro-2-methoxy-3-(4-(trifluoromethyl)benzyl)quinolin-6-yl)-1-(1,2-dimethyl-1H-imidazol-5-yl)ethanol]
180	98		280		COc1nc2ccc(C(C)(O)c3cncn3C)cc2c(Cl)c1Cc1ccc(C(F)(F)F)cc1 (single isomer, unassigned) [Example 9c, 1-(4-Chloro-2-methoxy-3-(4-(trifluoromethyl)benzyl)quinolin-6-yl)-1-(1-methyl-1H-imidazol-5-yl)ethanol]
98	94		320		C#CC(O)(c1ccc2nc(OC)c(Cc3ccc(C(F)(F)F)cc3)c(Cl)c2c1)C1CN(C(C)=O)C1 (single isomer, unassigned) [Example 7c, 1-(3-(1-(4-chloro-2-methoxy-3-(4-(trifluoromethyl)benzyl)quinolin-6-yl)-1-hydroxyprop-2-yn-1-yl)azetidin-1-yl)ethanone]
66			190	84	C#CC(O)(c1ccc2nc(OC)c(Cc3ccc(C(F)(F)F)cc3)c(Cl)c2c1)c1cnc(C)n1C (single isomer, unassigned) [Example 14b, 1-(4-Chloro-2-methoxy-3-(4-(trifluoromethyl)benzyl)quinolin-6-yl)-1-(1,2-dimethyl-1H-imidazol-5-yl)prop-2-yn-1-ol]
15	99	57			COc1nc2ccc(C(C)(O)c3cnnn3C)cc2c(Cl)c1Cc1ccc(C(F)(F)F)cc1 (single isomer, unassigned) [Example 11c, 1-(4-Chloro-2-methoxy-3-(4-(trifluoromethyl)benzyl)quinolin-6-yl)-1-(1-methyl-1H-1,2,3-triazol-5-yl)ethanol]
500		2100		102	COc1nc2ccc(C(C)(O)c3cnc(C)n3C)cc2c(Cl)c1Cc1ccc(C(F)(F)F)cc1 (single isomer, unassigned) [Example 12b, 1-(4-Chloro-2-methoxy-3-(4-(trifluoromethyl)benzyl)quinolin-6-yl)-1-(1,2-dimethyl-1H-imidazol-5-yl)ethanol]

Structure (SMILES)	IC50 (human RORγt LBD) [nM]	RORγt reporter Assay, % inhibition @ 6 μM (human RORγt LBD) [%]	IC50 [1] [nM]	IC50 ([1]; Homo sapiens, CD4+ T, 72 h) [nM]	inhibition at 6 µM (human RORγt LBD) [%]
COc1nc2ccc(C(C)(O)c3oc(C)nc3C)cc2c(Cl)c1Cc1ccc(C(F)(F)F)cc1 (single isomer, unassigned) [Example 10c, 1-(4-Chloro-2-methoxy-3-(4-(trifluoromethyl)benzyl)quinolin-6-yl)-1-(2,4-dimethyloxazol-5-yl)ethanol]	330			550	95
COc1nc2ccc(C(C)(O)c3oc(C)nc3C)cc2c(Cl)c1Cc1ccc(C(F)(F)F)cc1 (single isomer, unassigned) [Example 10b, 1-(4-Chloro-2-methoxy-3-(4-(trifluoromethyl)benzyl)quinolin-6-yl)-1-(2,4-dimethyloxazol-5-yl)ethanol]	260	96		640	
